Laboratory results from patent US20160089464A1, “MALODOR REDUCTION COMPOSITIONS” (The Procter & Gamble Company, priority 2014, published 2016).

Assay: Comment Code material properties: vapor pressure, ClogP, probability of ingredient color instability, odor detection threshold, melamine formaldehyde PMC headspace response ratio and leakage, liquid dish neat product liquid-air partition coefficient
Assay type: physicochemical
[1] = Table 1 materials, each letter of the code is one property class (vapor pressure, ClogP, color instability, odor detection threshold, PMC headspace ratio, PMC leakage, liquid dish liquid-air partition coefficient)
[2] = letter codes A-L: vapor pressure, ClogP, probability of ingredient color instability, odor detection threshold, PMC headspace response ratio, PMC leakage, liquid dish liquid-air partition coefficient, Table 1 materials with at least one MORV from 1 to 5
[3] = cell strings several class symbols together, each letter is one property class of L1

| Comment Code [1] | Comment Code [2] | Comment Code [3] | SMILES |
| --- | --- | --- | --- |
| DFHJ | – | – | COC(=O)c1ccccc1NC(O)CC(C)c1ccccc1 (centres unmarked) [Material 1093] |
| – | CGIJ | – | COC(=O)c1c(C)cc(O)c(C)c1O [Material 1117] |
| ADEFHIJKL | – | – | CCC(C)CCC(C)(CC)OC(C)=O (centres unmarked) [Material 821] |
| – | – | ACEFHIKL | CCC=CCCO [Material 817] |
| BCEFHJK | – | – | COc1ccc(CCC(C)=O)cc1 [Material 803] |
| ADGIKL | – | – | C=C/C(C)=C/CC=C(C)C [Material 1077] |
| – | – | BCHJKL | COC(=O)C=C(C)CCC=C(C)C [Material 111] |
| – | – | ACEFGIJKL | CC12CCC(CC1=O)C2(C)C (centres unmarked) [Material 588] |
| ACEFGIKL | – | – | CCCOC(C)OCCC [Material 767] |
| – | – | ACGIJK | COC(C)(C)CCCC(C)C=O (centres unmarked) [Material 125] |
| BDEFHJK | – | – | C=C(C)[C@@H]1CCC2=CCC[C@@H](C)[C@]2(C)C1 [Material 1105] |
| – | DEFHJK | – | CC1(C)C2CCC3(C2)C1C1(CCC3(C)C)OCCO1 (centres unmarked) [Material 1145] |
| BCEFGJK | – | – | CC1=CCOC(c2ccccc2)C1 (centres unmarked) [Material 1016] |
| – | – | ADEFGIJKL | C=C(C)CC(C)OC(=O)C(C)C (centres unmarked) [Material 201] |
| ADEFHJK | – | ADEFHJK | CC1C(C)(C)C2CCC3CC(C)(C)OC3C2C1(C)C (centres unmarked) [Material 680] |
| – | – | ADEFGIKL | C=CC(C)=CC=CC(=C)C [Material 495] |
| – | – | ACEFHIK | C=C(OC(C)=O)c1ccccc1 [Material 931] |
| DEFHJK | – | – | C/C(=C/C#N)CCc1ccccc1 [Material 892] |
| – | DEFGJKL | DEFGJKL | C1CC2C3CC(C2C1)C1(CCCO1)C3 (centres unmarked) [Material 1137] |
| – | – | ADEFHIJKL | CCOC(=O)[C@@H]1[C@@H](C)CCCC1(C)C [Material 1058] |
| BDEFGJKL | – | BDEFGJKL | CC1CCC2=C1CC1CCC2(C)C1(C)C (centres unmarked) [Material 621] |
| – | – | BCHIJKL | CC(C)=CCCC(C)CCO (centres unmarked) [Material 900] |
| BCEFHJK | – | – | CC1CCC2C(C2(C)C)C12COC(C)(C)OC2 (centres unmarked) [Material 1036] |
| ACEFGIKL | – | – | CC(O)CO (centres unmarked) [Material 993] |

| Comment Code [1] | Comment Code [2] | Comment Code [3] | SMILES |
| --- | --- | --- | --- |
| – | – | ADEFHKL | CCCc1ccc(OC)cc1 [Material 987] |
| – | – | ACHIJKL | CC(C)=CCCC(C)CC=O (centres unmarked) [Material 891] |
| BCHIK | – | – | CC(C)=CCC/C(C)=C/CO [Material 1082] |
| – | – | ADHIJKL | C=CC(C)(CCC=C(C)C)OC (centres unmarked) [Material 24] |
| – | – | ACEFGIK | CC(=O)CCc1ccccc1 [Material 640] |
| ADEFHJK | – | BDEFHJK | COC1(C)CCC23CC1C(C)(C)C2CCC3C (centres unmarked) [Material 565] |
| – | – | BDEFHIJK | CC(C)C1CCC(CO)CC1 (centres unmarked) [Material 133] |
| DEFHJ | – | – | CC(OC(C)(C)COC(=O)C1CC1)C1CCCC(C)(C)C1 (centres unmarked) [Material 1032] |
| ADFHIKL | – | – | CCCCCCCC(C)=O [Material 840] |
| – | – | BDEFHJKL | CCCCCCCC(=O)OCC [Material 387] |
| – | – | BDHIJK | CC(=O)CCC1C(C)=CCCC1(C)C (centres unmarked) [Material 448] |
| DEFHJK | – | – | c1ccc(CCOC2CCCCC2)cc1 [Material 953] |
| – | – | BDEFHJK | CC(C)CC(=O)OCc1ccccc1 [Material 645] |
| – | – | ADEFGIJKL | C=C1CCC2(C(C)C)CC12 (centres unmarked) [Material 1018] |
| DEFHJK | – | – | CC1=C2CCC(C)C2CC(C(C)(C)O)CC1 (centres unmarked) [Material 920] |
| – | – | CEFGJK | C/C=C1/CC2CC1C1CCC(=O)OC21 (centres unmarked) [Material 353] |
| – | – | ACEFHK | C=CCOCCc1ccccc1 [Material 744] |
| – | – | ACFHIKL | CCOC(=O)OC1CCCCC1C(C)(C)C (centres unmarked) [Material 365] |
| ADEFHJKL | – | – | CC(C)=CCCC1(C)C2CC3C(C2)C31C (centres unmarked) [Material 693] |
| ADHKL | – | – | CCCCCCCC=CC=O [Material 856] |
| DEFGJK | – | – | CCCCCCCCCCCCCO [Material 1090] |
| BDEFHJK | – | – | C=C(C)C1CCC2(C)CCC=C(C)C2C1 (centres unmarked) [Material 774] |
| – | – | DEFHJK | CC(O)C(C)/C=C1\C[C@H]2C[C@@H]1[C@@H]1C=CC[C@H]21 (some centres unmarked) [Material 359] |
| DEFHJK | – | DEFHJK | CC12CCCC(O)(C1)C1CC(C)(C)C1CC2 (centres unmarked) [Material 574] |

| Comment Code [1] | Comment Code [2] | Comment Code [3] | SMILES |
| --- | --- | --- | --- |
| BDEFHIJK | – | – | CCC=C(C)C(O)CCCCC (centres unmarked) [Material 1104] |
| – | – | DEFHIJK | CC1=CC(C)C2C(CCC(C)(C)C2O)C1 (centres unmarked) [Material 39] |
| ACEFHKL | – | – | CCCCCC=COC(C)=O [Material 869] |
| – | – | ADEFHJKL | CCC(C)(CCCC(C)C)OC(C)=O (centres unmarked) [Material 1055] |
| – | – | ADFHIJK | C=C(C=O)C(C)CCC=C(C)C (centres unmarked) [Material 819] |
| – | – | CEFGIK | CC(=O)CCc1ccc(O)cc1 [Material 1002] |
| – | – | CEFHIJK | CCCc1ccc(O)c(OC)c1 [Material 440] |
| – | – | DEFHJK | CC1COCc2cc3c(cc21)C(C)(C)C(C)C3(C)C (centres unmarked) [Material 335] |
| – | – | BDEFGIKL | CC(C)CCCCCCO [Material 205] |
| DEFHJK | – | – | CCC(C)C(=O)OCCc1ccccc1 (centres unmarked) [Material 954] |
| DEFHJK | – | DEFHJK | C[C@@H]1CCC=C2CC[C@@H](C(C)(C)O)C[C@]21C [Material 1107] |
| – | – | ADHIJKL | COC(C)(C)C1CC=C(C)CC1 (centres unmarked) [Material 20] |
| DEFHJK | – | DEFHJK | CC1=CC[C@@H]2[C@@]3(C)CCCC(C)(C)[C@@H]3CC[C@@]2(C)O1 [Material 1029] |
| BDHJK | – | – | C=CCCC(=O)C1=CCCC(C)(C)C1 [Material 697] |
| – | – | ACEFHIKL | CC/C=C\CCO [Material 542] |
| DEFHJKL | – | – | CC(C)=CCCC(C)C12CC=C(C)C1C2 (centres unmarked) [Material 926] |
| DFHJ | – | – | CC1=CCC(C23CCCC(C)(C2)OC3)C1(C)C (centres unmarked) [Material 571] |
| – | – | CFHJK | CC=Cc1ccc(OC(C)=O)c(OC)c1 [Material 213] |
| – | – | CEFHIK | O=C(O)CCc1ccccc1 [Material 255] |
| DEFHJK | – | – | CCCCCCCCCC(=O)O [Material 582] |
| DEFHJK | – | – | CC(=O)CCCC(C)CCCC(C)CCCC(C)C (centres unmarked) [Material 782] |
| CEFGJK | – | – | CCCCOC(=O)C(C)OC(=O)CCC (centres unmarked) [Material 595] |
| – | – | ADEFHIKL | CCCCCCOC(=O)CC [Material 264] |
| – | – | ADHIJKL | CC(=O)OC(C)C1CCCC(C)(C)C1 (centres unmarked) [Material 1011] |

| Comment Code [1] | Comment Code [2] | Comment Code [3] | SMILES |
| --- | --- | --- | --- |
| BDEFHJKL | – | – | CC(C)=CCCC1(C)C2CC=C(C)C1C2 (centres unmarked) [Material 720] |
| – | – | ACEFHIK | CC(=O)OC(C)c1ccccc1 (centres unmarked) [Material 1041] |
| DEFHJ | – | – | CCCCCCCCCCCCCCCCCC(=O)OCCCC [Material 594] |
| DHJK | – | – | C=CC(C)=CCC=C(C)CCC=C(C)C=O [Material 691] |
| BDEFHJKL | – | BDEFHJKL | C=C1CCC2C(C3C(C)CCC13)C2(C)C (centres unmarked) [Material 750] |
| – | – | ADEFGIJKL | C=C1C=CC(C(C)C)CC1 (centres unmarked) [Material 619] |
| – | – | DHJK | CC(=O)[C@@]1(C)CC2=C(CCCC2(C)C)C[C@@H]1C [Material 215] |
| DEFHJ | – | DEFHJ | C=C[C@](C)(O)CC[C@@H]1[C@@]2(C)CCCC(C)(C)[C@@H]2CC[C@@]1(C)O [Material 1028] |
| – | ACEFHKL | – | CC/C=C/CC/C=C\C#N [Material 1138] |
| – | – | CEFHK | CC=Cc1ccc(OCC)c(O)c1 [Material 1112] |
| DFHIJK | – | – | CC1CCC2(O1)C(C)(C)CCCC2(C)O (centres unmarked) [Material 893] |
| – | – | ACEFGIJKL | CCC(C)C(=O)OC(C)C (centres unmarked) [Material 198] |
| – | – | BCEFGIK | CCOCCOCCO [Material 579] |
| – | – | BDEFHJKL | C/C=C(\C)C(=O)OCCCCCC [Material 909] |
| – | – | BDHJK | C=CC(C)(CCC=C(C)C)OC(C)=O (centres unmarked) [Material 154] |
| – | – | BCEFGIK | CCC(C)c1nccnc1OC (centres unmarked) [Material 845] |
| – | – | DEFHJK | CC(C)C(=O)OC1CC2CC1C1C=CCC21 (centres unmarked) [Material 487] |
| BDEFGJK | – | – | CCCCCCCCCCO [Material 868] |
| BDEFHJK | – | – | C=CC(C)(CCC=C(C)C)OC(C)OCC (centres unmarked) [Material 916] |
| ACHKL | – | – | CC/C=C/CC/C=C/C=O [Material 829] |
| – | – | CEFHJK | CC1OC(C)C2Cc3ccccc3C2O1 (centres unmarked) [Material 141] |
| ACEFGIJK | – | – | CC12CCC(C(=O)C1=O)C2(C)C (centres unmarked) [Material 587] |
| – | – | BCEFHIKL | CC/C=C\CCOC(=O)C1CC1 [Material 84] |

| SMILES | Comment Code [1] | Comment Code [2] | Comment Code [3] |
| --- | --- | --- | --- |
| O=C/C=C/c1ccccc1 [Material 554] | – | – | ACHIK |
| Cc1coc2c1CCC(C)C2 (centres unmarked) [Material 802] | BCEFHIJKL | – | – |
| OCCOc1ccccc1 [Material 834] | BCEFGIK | – | – |
| CC(=O)OC(c1ccccc1)C(Cl)(Cl)Cl (centres unmarked) [Material 1088] | – | – | BDEFGJ |
| O=Cc1ccc2c(c1)OCO2 [Material 287] | – | – | BCGIK |
| COc1ccc(CC(C)=O)cc1 [Material 983] | – | – | BCEFHK |
| CC(C)=CCCC(C)CCOC(=O)Cc1ccccc1 (centres unmarked) [Material 510] | – | – | DFHJ |
| C=CCc1ccc2c(c1)OCO2 [Material 1021] | BCEFHK | – | – |
| CCCCCCCC#N [Material 578] | ACEFGIKL | – | – |
| Cc1ccc(OC(=O)Cc2ccccc2)cc1 [Material 998] | DFHJ | – | – |
| COc1ccc(C=O)cc1OC [Material 1118] | – | – | BCGIK |
| O=C(Cc1ccccc1)OCc1ccccc1 [Material 922] | DHJ | – | – |
